Data as given in patent US20240109905A1, “4-ALKOXY-6-OXO-PYRIDAZINE DERIVATIVES MODULATING NLRP3” (JANSSEN PHARMACEUTICA NV, priority 2021, published 2024).

How the values were obtained:
TNF = test: PBMC assay: TNF cytokine level after LPS stimulation; assay type: cell-based; conditions: PBMC; human PBMCs, 30 min compound, 100 ng/ml LPS for 6 hrs, MSD
Outline: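 Thawed human PBMCs from healthy donors (7.5×10^4 per well, RPMI + 10% FBS) preincubated 30 min at 37° C with 1:3 serially diluted compounds, then stimulated 6 h with 100 ng/ml LPS (final). Supernatant TNF measured by MSD immunoassay; EC50/AC50 derived.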

IL-1β = test: PBMC assay: IL-1β release after LPS stimulation; assay type: cell-based; conditions: PBMC; human PBMCs, 30 min compound, 100 ng/ml LPS for 6 hrs, MSD; read-out: IL1β AC50
Outline: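 Thawed PBMCs from healthy donors (7.5×10^4 cells/well) were preincubated with serially diluted compound for 30 min at 37 °C, then stimulated with 100 ng/ml LPS (final) for 6 h. IL-1β in the supernatant was measured by MSD immunoassay, and AC50 values were derived from the concentration-response data.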

Structure (SMILES)	AC50 (TNF) [µM]	AC50 (IL-1β) [µM]
CC(C)COc1cc(=O)n(CC(=O)Nc2nc3ccc(Br)cc3n2C)nc1C(C)C [Compound 135]	> 10	> 10
CC(C)COc1cc(=O)n(CC(=O)Nc2nc3ccc(F)cc3n2C)nc1C(C)C [Compound 136]	> 10	> 10
CC(C)COc1cc(=O)n(CC(=O)Nc2nc3ccc(C#N)cc3o2)nc1C(C)C [Compound 137]	> 20	10.2
CC(C)c1nn(CC(=O)Nc2ccc3nncn3c2)c(=O)c(Cl)c1OCCC(F)(F)F [Compound 138]	> 20	10.7
Cc1cnc(C23CC(NC(=O)Cn4nc(C(C)C)c(OCC(C)C)cc4=O)(C2)C3)o1 [Compound 139, 2-(4-isobutoxy-3-isopropyl-6-oxopyridazin-1(6H)-yl)-N-(3-(5-methyloxazol-2-yl)bicyclo[1.1.1]pentan-1-yl)acetamide]	> 20	10.8
CC(C)COc1cc(=O)n(CC(=O)Nc2nc3ncccc3o2)nc1C(C)C [Compound 140]	> 20	11.8
CC(C)COc1cc(=O)n(CC(=O)Nc2nc3cc(Cl)ccc3o2)nc1C(C)C [Compound 141, N-(5-chlorobenzo[d]oxazol-2-yl)-2-(4-isobutoxy-3-isopropyl-6-oxopyridazin-1(6H)-yl)acetamide]	> 20	12.2
O=C(Cn1nc(OCC(F)(F)F)c(OCC(F)(F)F)cc1=O)Nc1ccc2nncn2n1 [Compound 142]	> 20	15.7
CC(C)c1nn(CC(=O)Nc2ccc3nncn3n2)c(=O)cc1Oc1ccccc1 [Compound 143]	> 20	18
CC(C)COc1cc(=O)n(CC(=O)Nc2nc3cccnc3o2)nc1C(C)C [Compound 144]	> 20	> 20
Cc1ccc2nc(NC(=O)Cn3nc(C(C)C)c(OCC(C)C)cc3=O)n(C)c2c1 [Compound 145]	> 20	> 20
CC(C)COc1cc(=O)n(CC(=O)Nc2nc3ccc(C#N)cc3n2C)nc1C(C)C [Compound 146]	> 20	> 20
CC(C)COc1cc(=O)n(CC(=O)Nc2nc3ccccc3n2C)nc1C(C)C [Compound 147]	> 20	> 20
CC(C)COc1cc(=O)n(CC(=O)Nc2nc3cc(C#N)ccc3n2C)nc1C(C)C [Compound 148]	> 20	> 20
CC(C)COc1cc(=O)n(CC(=O)Nc2nc3cc(F)ccc3n2C)nc1C(C)C [Compound 149]	> 20	> 20
CC(C)COc1cc(=O)n(CC(=O)Nc2nc3cc(Cl)ccc3n2C)nc1C(C)C [Compound 150]	> 20	> 20
CC(C)COc1cc(=O)n(CC(=O)Nc2nc3cc(Br)ccc3n2C)nc1C(C)C [Compound 151]	> 20	> 20
Cc1c(OCc2ccccc2)c(C(C)C)nn(CC(=O)Nc2ccc3nncn3c2)c1=O [Compound 152]	> 20	> 20
CC(C)COc1cc(=O)n(CC(=O)NC23CCC(NC(=O)OC(C)(C)C)(CC2)CC3)nc1C(C)C [Compound 153]	> 20	> 20
COc1nn(CC(=O)Nc2ccc3nncn3n2)c(=O)cc1OCC(F)(F)F [Compound 154]	> 20	> 20
CC(C)COc1c(C(C)C)nn(CC(=O)Nc2ccc3nncn3c2)c(=O)c1C(C)O (stereo not shown) [Compound 155]	> 20	> 20
O=C(Cn1nc(OCC(F)(F)F)c(OCC(F)(F)F)cc1=O)Nc1ccc2nncn2c1 [Compound 156]	> 20	> 20
CN(C)c1nn(CCO)c(=O)cc1OCC1CC1 [Compound 157, 5-(cyclopropylmethoxy)-6-(dimethylamino)-2-(2-hydroxyethyl)pyridazin-3(2H)-one]	> 20	> 20
CC(C)COc1cc(=O)n(CCO)nc1N(C)C [Compound 158]	> 20	> 20
CC(C)c1nn(CC(=O)Nc2ccc3nncn3c2)c(=O)cc1OC1CCNC1 (stereo not shown) [Compound 159]	> 20	> 20
CC(C)c1nn(CC(=O)Nc2ccc3nncn3c2)c(=O)cc1OCC1CNC1 [Compound 160]	> 20	> 20
CC(C)c1nn(CC(=O)Nc2ccc3nncn3c2)c(=O)cc1OC1CNC1 [Compound 161]	> 20	> 20
COc1cc(=O)n(CC(=O)Nc2ccc3nncn3c2)nc1C(C)C [Compound 162]	> 20	> 20
CC(C)COc1c(C(C)C)nn(CC(=O)Nc2ccc3nncn3c2)c(=O)c1C(F)(F)F [Compound 163]	> 20	> 20
